Holding throughout (experiment): NCI tumour cell line growth inhibition, 48 h
Assay [1] relates to DMS 273 small cell lung.
The test system of assay [2] is MALME-3M melanoma.
The test system of assay [3] is SF-539 CNS.
The subject of assay [4] is DLD-1 colon.
Assay [5] deals with NCI-H226 lung.
Assay [6] concerns NCI-H460 lung.
Assay [7] deals with SF-268 CNS.
Assay [8] deals with EKVX NSCLC.
Assay [9] concerns M19-MEL melanoma.

Where “and” joins values, the source holds several entries; their conditions need not be identical. Identical values can stand only once.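 In this assay, cells in 96-well plates receive the compound at five concentrations for 48 hours. Endpoints are linearly interpolated between the surrounding concentrations. At the GI50, growth is halved. TGI is the concentration that stops growth completely.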

Turning to `Cc1cc(C)nc(Nc2nc3ccc([N+](=O)[O-])cc3[nH]2)n1`, the TGI in assay [1], in assay [2], in assay [3], in [4], in [5] and in assay [6] was above 100 µM each time. The TGI in assay [7] and in [8] was above 100 µM in each case.

In the case of `CCOC(=O)c1ccc(N2C(=O)/C(=C\OC)c3ccccc3C2=O)cc1`, the TGI in [1], in assay [2], in assay [9], in assay [3], in assay [5] and in assay [7] was above 100 µM throughout. Besides, in [8], the TGI was above 100 µM.

Regarding `c1ccc(N=C2c3ccccc3C3=NCCCN32)cc1`, the TGI in assay [1], in assay [2], in assay [9], in assay [3], in assay [4] and in assay [5] was above 100 µM in each case. Moreover, the TGI in assay [6], in assay [7] and in assay [8] was above 100 µM throughout.

As to `COC(=O)c1ccc(N=NN(C)CO)cc1`, the TGI in [1], in [2], in assay [9], in assay [3], in [4] and in assay [5] was above 100 µM throughout. Also, the TGI in assay [6] and in assay [8] was above 100 µM in each case.

Regarding `O=C(Nc1ncc(Cc2ccccc2Cl)s1)c1ccc2c(c1)OCCO2`, the GI50 is 0.68 µM in [2]; 0.258 µM in [3]; 1.17 µM in assay [5]; 0.352 µM in assay [6]; 1.8 µM in assay [7]; 0.663 µM in assay [8]. The TGI in assay [2] is above 47.1 µM; in assay [3], 0.741 µM; in assay [5] it was 8.45 µM; in assay [6] it was above 44.1 µM; in [7], above 100 µM; in assay [8], above 100 µM.

Turning to `OCCCCC#Cc1ccccc1C#Cc1ccccc1C(F)(F)F`, the GI50 in assay [2] is 14.7 µM; in [3], 12 µM; in [5], 16.7 µM; in [6] it was 17.9 µM; in assay [7], 17.4 µM; in [8], 12.7 µM. Further, the TGI is 37.5 µM in assay [2]; 25.2 µM in [3]; 44.4 µM in [5]; 34.7 µM in assay [6]; 33.7 µM in [7]; 26.8 µM in assay [8].

Take `COc1c(O)ccc2c1CN1CCc3cc4c(cc3C1C2)OCO4` (configuration not stated): the TGI in assay [2] is above 100 µM; in [3], above 100 µM; in assay [5], above 100 µM; in [6] it was above 74.7 µM; in [7], above 100 µM; in [8], above 100 µM.

As for `CNC(=O)c1cccc(-c2ccc3c(N4CCOC[C@@H]4C)nc(N4CCOC[C@@H]4C)nc3n2)c1`, the GI50 in assay [2] was 0.0201 µM and 0.0351 µM and < 0.0204 µM; in assay [3], 0.15 µM and 0.166 µM and 0.125 µM; in assay [5] it was 0.0438 µM and 0.149 µM and 0.115 µM; in assay [6], 0.0422 µM and 0.0853 µM and 0.0538 µM; in [7], 0.0653 µM and 0.209 µM and 0.212 µM; in [8], 0.0998 µM and 0.139 µM. Also, the TGI in assay [2] was 0.55 µM and 0.524 µM and 0.138 µM; in assay [3] it was 1.49 µM and 1.26 µM and 0.677 µM; in [5], 0.77 µM and 2.9 µM and 0.959 µM; in [6] it was above 100 µM; in [7], 10.5 µM and > 6.59 µM and > 100 µM; in assay [8], 0.765 µM and 2 µM.

For `COc1ccc(/C=C\c2cc(OC)c(OC)c(OC)c2)cc1OCC(=O)Nc1nc2ccc(C(F)(F)F)cc2s1`, the GI50 in assay [2] is above 100 µM; in [3], 2.66 µM; in assay [5], 3.17 µM; in assay [6], 3.55 µM; in assay [7], 3.85 µM; in assay [8], 6.25 µM. Further, the TGI in assay [2] was above 100 µM; in assay [3], 7.87 µM; in [5] it was 31.3 µM; in assay [6], above 100 µM; in assay [7], 48.6 µM; in assay [8], above 100 µM.

Take `Cc1cc(S(=O)(=O)Nc2nnc(-c3ccccc3)c(-c3ccccc3)n2)c(SCc2ccccc2)cc1Cl`: the GI50 was 16.9 µM in assay [2]; 19.9 µM in assay [3]; 27.7 µM in [5]; 23.8 µM in [6]; 19.3 µM in assay [7]; 5.68 µM in [8]. Also, the TGI was found to be 38.7 µM in assay [2]; 38.6 µM in [3]; 79.8 µM in [5]; 65.7 µM in assay [6]; 39.9 µM in assay [7]; 25.2 µM in assay [8].

Turning to `Cc1ccc2c(=O)c3cccc(CC(=O)O)c3oc2c1C`, the GI50 in assay [2], in assay [3], in assay [5], in [6], in assay [7] and in [8] was above 100 µM in each case. The TGI in assay [2], in assay [3], in [5], in [6], in [7] and in assay [8] was above 100 µM in each case.

As for `C=C1C(=O)O[C@H]2[C@H]1CC/C(Cn1cc(-c3ccccc3)nn1)=C\CC[C@@]1(C)O[C@@H]21`, the GI50 in assay [2] was 1.17 µM; in [3], 2.01 µM; in [5] it was 4.6 µM; in assay [6] it was 7.74 µM; in assay [7], 5.63 µM; in [8], 6.87 µM. For the same compound, the TGI came out at 2.84 µM in [2]; 7.18 µM in assay [3]; 11.2 µM in assay [5]; 23.3 µM in assay [6]; 13.4 µM in [7]; 13.3 µM in assay [8].

`O=C1c2ccccc2-c2c1c1ccccc1c(=O)n2CCCN1CCOCC1`: the GI50 in [2] is 9.43 µM; in assay [3], 6.65 µM; in [5], 26.4 µM; in [6], 20 µM; in [7] it was 6.52 µM; in [8], 22.7 µM. The TGI in [2] was 45.1 µM; in assay [3], 19.6 µM; in [5] it was 84.5 µM; in assay [6], above 100 µM; in [7] it was 26.1 µM; in assay [8], 76.4 µM.

Take `O=C1OC(=O)C2C1C1(c3ccccc3)C(c3ccccc3)=C(c3ccccc3)C2(c2ccccc2)S1=O` (configuration not stated): the GI50 in assay [2], in [3], in assay [5], in assay [6], in assay [7] and in assay [8] was above 100 µM in each case. Further, the TGI in [2], in [3], in assay [5], in assay [6], in assay [7] and in assay [8] was above 100 µM in each case.

For `Cc1cc2c(F)c(Oc3ncnn4cc(OC[C@@H](C)OC(=O)[C@H](C)N)c(C)c34)ccc2[nH]1`, the GI50 in assay [2] was 11.7 µM; in assay [3], 4.81 µM; in [5], 7.75 µM; in assay [6] it was 2.1 µM; in [7], 8 µM; in [8] it was 13.5 µM. Besides, the TGI in [2] stood at 24.9 µM; in [3], 17.3 µM; in assay [5], 24.8 µM; in [6] it was 13.8 µM; in assay [7], 23.5 µM; in assay [8] it was 26.9 µM.

`CCN(CC)CCOc1ccc(/C=C2\CC3C4CC=C5C[C@@H](N6CCCC6)CC[C@]5(C)C4CC[C@]3(C)[C@H]2O)cc1OC` (some centres not stated): the GI50 in [2] is 3.68 µM; in assay [3] it was 1.91 µM; in assay [5], 19.3 µM; in [6], 14.2 µM; in [7] it was 11.8 µM; in assay [8] it was 12.9 µM. In addition, the TGI in assay [2] is 9.82 µM; in assay [3], 3.93 µM; in assay [5], 45.2 µM; in assay [6], 65.7 µM; in [7] it was above 76.6 µM; in [8], above 77.4 µM.

As to `C[C@]12CCC(=O)C(O)=C1CC[C@@H]1[C@@H]2CC[C@]2(C)C(=O)CC[C@@H]12`, the TGI in assay [2], in assay [3], in assay [4], in [5], in [6] and in assay [7] was above 100 µM each time. For the same compound, the TGI in assay [8] was above 100 µM.

For the compound `CN(C)CCCNC(=O)c1cc(NC(=O)c2cc(NC(=O)c3cc(NC(=O)CCc4c[nH]c5ccccc45)cn3C)cn2C)cn1C`, the GI50 was 30.4 µM in [2]; above 100 µM in [3]; above 100 µM in assay [5]; above 100 µM in [6]; above 100 µM in assay [7]; above 100 µM in assay [8]. Besides, the TGI in [2] is 88.7 µM; in assay [3], above 100 µM; in assay [5], above 100 µM; in [6], above 100 µM; in assay [7], above 100 µM; in [8], above 100 µM.

On to `CC(=O)N1c2ccccc2Sc2cc(C(O)(C(F)(F)F)C(F)(F)F)ccc21`, for which the TGI in assay [2], in assay [3], in [5], in assay [6], in assay [7] and in assay [8] was above 10 µM in each case.

For `Cc1ccc2c(N)c(C(=O)N[C@H]3CCc4cc(N5CC6CCC(C5)N6)ccc4C3)sc2n1`, the GI50 was 0.441 µM in assay [2]; 0.531 µM in assay [3]; 0.452 µM in [5]; 0.152 µM in assay [6]; 0.42 µM in assay [7]; 0.572 µM in [8]. The TGI was found to be 2.04 µM in assay [2]; 2.21 µM in assay [3]; 2.58 µM in assay [5]; 1.43 µM in assay [6]; 2.51 µM in [7]; 2.34 µM in assay [8].

For the compound `CCOC(=O)Oc1c(OC)cc(C(=O)O[C@@H]2C[C@@H]3CN4CCc5c([nH]c6cc(OC)ccc56)[C@H]4C[C@@H]3[C@H](C(=O)OC)[C@H]2OC)cc1OC`, the GI50 in [2] was 6.74 µM; in [3], 4.18 µM; in [5], 15.1 µM; in assay [6], 3.8 µM; in assay [7], 8.07 µM; in [8], 5.78 µM. The TGI in assay [2] came to 27.1 µM; in assay [3], 14.8 µM; in assay [5], 58.1 µM; in [6] it was 16.6 µM; in assay [7], 27.5 µM; in assay [8], 35.9 µM.

In the case of `Cc1[nH]c(/C=C2\C(=O)Nc3ccc(F)cc32)c(C)c1C(=O)NC[C@H](O)CN1CCOCC1`, the GI50 in assay [2] is 4.21 µM; in assay [3] it was 4.31 µM; in assay [5] it was 2.33 µM; in assay [6] it was 2.39 µM; in assay [7], 4.83 µM; in [8], 8.02 µM. In addition, the TGI in assay [2], in assay [3], in assay [5], in assay [6], in assay [7] and in assay [8] was above 10 µM each time.

Consider `Nc1ccccc1C#C/C=C\C#Cc1ccc(Cl)cc1Cl`, for which the GI50 in [2] is 1.87 µM; in assay [3] it was 12.3 µM; in [5] it was 19.2 µM; in [6], 10.7 µM; in assay [7] it was 4.38 µM; in [8], 18.8 µM. Also, the TGI in [2] is 17.2 µM; in assay [3] it was 28.9 µM; in [5] it was 39.5 µM; in assay [6], 26.5 µM; in [7], 23.7 µM; in assay [8] it was 47.9 µM.

With `C/C=C(\C)C(=O)O[C@H]1C=CC(=O)O[C@H]1CNC(=O)[C@H](C)O`, the GI50 in assay [2] was 18.5 µM; in assay [3], 19.4 µM; in assay [5], 17.9 µM; in assay [6] it was 28.2 µM; in assay [7], 16.7 µM; in assay [8], 26.2 µM. Further, the TGI came to 35.1 µM in [2]; 35.4 µM in assay [3]; 46.7 µM in assay [5]; 94.2 µM in assay [6]; 35.7 µM in [7]; 67.4 µM in [8].

In the case of `O=[N+]([O-])/C=C/c1c[nH]c2ccccc12`, the GI50 in [2] was 19 µM; in [3] it was 15.4 µM; in assay [5] it was 18.1 µM; in assay [6], 17 µM; in assay [7], 16 µM; in assay [8], 19.3 µM. Further, the TGI is 35.7 µM in assay [2]; 35.6 µM in assay [3]; 40.4 µM in assay [5]; 46.3 µM in assay [6]; 40.5 µM in assay [7]; 45.1 µM in assay [8].

Source of the values: PubChem BioAssay (NCI).
